Assay results published in paper PMC8468039, “Development of New Meridianin/Leucettine-Derived Hybrid Small Molecules as Nanomolar Multi-Kinase Inhibitors with Antitumor Activity” (Biomedicines, 2021).
Where “and” joins values, the source holds several entries; their conditions need not be identical. Equal values may be shown once. Read-outs that look alike come from different tables or passages of the source.

Columns and labels:
FMS = target: T1, FMS (Homo sapiens, UniProt P07333); test: In vitro kinase inhibition assay (HotSpot, Reaction Biology); type: biochemical; details: for inhibition at 10 µM: read-out: Percent Inhibition, FMS; for IC50: 10-dose, 3-fold serial dilution starting at 100 μM; for fold more potent than imatinib over FMS: from IC50 values
T1 construct: purchased Reaction Biology Corp
T1 sequence (P07333 20-972): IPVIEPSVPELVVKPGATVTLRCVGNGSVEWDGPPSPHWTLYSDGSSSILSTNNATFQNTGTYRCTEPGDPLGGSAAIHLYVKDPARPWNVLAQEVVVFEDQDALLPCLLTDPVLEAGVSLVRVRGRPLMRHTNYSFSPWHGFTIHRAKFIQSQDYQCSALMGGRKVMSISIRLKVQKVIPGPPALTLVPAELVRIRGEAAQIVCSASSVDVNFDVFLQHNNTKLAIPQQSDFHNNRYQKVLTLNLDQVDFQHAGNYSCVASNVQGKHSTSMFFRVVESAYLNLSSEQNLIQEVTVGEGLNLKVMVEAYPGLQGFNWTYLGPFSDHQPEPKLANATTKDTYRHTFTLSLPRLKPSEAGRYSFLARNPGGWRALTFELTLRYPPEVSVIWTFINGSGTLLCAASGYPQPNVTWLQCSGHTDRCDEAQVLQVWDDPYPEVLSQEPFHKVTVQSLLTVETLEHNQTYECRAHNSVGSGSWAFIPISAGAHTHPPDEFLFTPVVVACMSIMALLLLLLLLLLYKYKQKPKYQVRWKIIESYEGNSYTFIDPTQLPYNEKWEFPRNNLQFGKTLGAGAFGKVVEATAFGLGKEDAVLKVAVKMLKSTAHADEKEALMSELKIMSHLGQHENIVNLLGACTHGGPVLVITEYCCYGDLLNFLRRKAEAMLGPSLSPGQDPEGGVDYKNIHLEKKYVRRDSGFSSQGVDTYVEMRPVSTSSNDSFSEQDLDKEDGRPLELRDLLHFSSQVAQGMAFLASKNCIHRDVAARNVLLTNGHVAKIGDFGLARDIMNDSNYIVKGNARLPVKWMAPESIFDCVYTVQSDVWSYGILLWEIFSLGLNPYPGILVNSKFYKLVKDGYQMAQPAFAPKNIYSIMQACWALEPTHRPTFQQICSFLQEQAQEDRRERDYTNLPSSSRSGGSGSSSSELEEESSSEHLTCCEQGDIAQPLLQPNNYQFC
Protocol: (§1) The in vitro kinase inhibition assay was carried out by Reaction Biology Corp. (Reaction Biology Corp., Chester, PA, USA) Kinase HotSpot^SM service (http://www.reactionbiology.com, accessed on 15 January 2021), following the previously reported methods. (For details, see Supplementary Material).
(§2) As mentioned in the introduction, to get insights about the kinase inhibition profile of the hybrid small molecule 5a, an in vitro screening over a panel of 14 cancer-related kinases was carried out. Accordingly, 10 µM concentrations of compound 5a were used in a kinase inhibition assay over various kinase groups and families in the presence of 10 µM ATP using HotSpotSM technology. To get a comprehensive picture of the inhibitory activities of the tested compound (5a) against the kinase panel, data are illustrated in Table 1. […] Compound 5a was also able to suppress the kinase activity of the epidermal growth factor receptor (EGFR), platelet-derived growth factor receptor-alpha (PDGFRα), and cyclin-dependent kinase 2 (CDK2) with modest inhibition values of 26.99 ± 0.9, 24.0 ± 0.4, and 20.1 ± 0.1%, respectively. […] Several studies have confirmed direct relationships between the most affected kinases (FMS, LCK, LYN, and DAPK1) and different human disorders including cancer.
(§3) 5. Protocol of Kinase assay
(§4) Kinases inhibitory activities were assessed by the HotSpot assay platform, which contained specific kinase/substrate pairs along with required cofactors. Base reaction buffer: 20 mM Hepes (pH 7.5), 10 mM MgCl2, 1 mM EGTA, 0.02% Brij35, 0.02 mg/ml BSA, 0.1 mM Na3VO4, 2 mM DTT, 1% DMSO. Testing compounds were dissolved in 100% DMSO to specific concentration. The serial dilution was conducted by Integra Viaflo Assist in DMSO. The reaction mixture containing the examined compound and 33P-ATP was incubated at room temperature for 2h and radioactivity was detected by filter-binding method. Kinase activity data were expressed as the percent remaining kinase activity in test samples compared to vehicle (dimethyl sulfoxide) reactions. IC50 values and curve fits were obtained using Prism (GraphPad Software).

K-562 = test: NCI growth inhibition (SRB) assay; type: cell-based; details: Homo sapiens, K562, K-562, Leukemia, single dose 10 µM, 48 h, read-out: Percent Growth Inhibition (GI)
Protocol: (§5) The antitumor assay was performed according to the protocol of the Drug Evaluation Branch, NCI, Bethesda. A 48 h drug exposure protocol was adopted, and sulforhodamine B (SRB) assay was utilized to assess the cell growth and viability, as reported earlier.
(§6) The inhibition results of tumor cell growth by the newly synthesized compounds (5a–5g) are described in Table 4. The reported measurements have been performed at the NIH National Cancer Institute, USA by a standardized assay including a panel of 60 different tumor cell lines (Supplementary Data). The following cancer cell types were included in these assays: Leukemia, non-small cell lung cancer, colon cancer, CNS cancer, melanoma, ovarian cancer, renal cancer, prostate, and breast cancer. […] Additionally, the 3,4-dimethoxy substituted compound (5b) also suffered poor activity against the cancer cell lines.

HCT-116 = test: NCI growth inhibition (SRB) assay; type: cell-based; details: Homo sapiens, HCT-116, Colon Cancer, single dose 10 µM, 48 h, read-out: Percent Growth Inhibition (GI)
Protocol: as §5, §6

MOLT-4 = test: NCI growth inhibition (SRB) assay; type: cell-based; details: Homo sapiens, MOLT-4, Leukemia, single dose 10 µM, 48 h, read-out: Percent Growth Inhibition (GI)
Protocol: as §5, §6

SR = test: NCI growth inhibition (SRB) assay; type: cell-based
Protocol: as §5, §6

KM12 = test: NCI growth inhibition (SRB) assay; type: cell-based; details: Homo sapiens, KM12, Colon Cancer, single dose 10 µM, 48 h, read-out: Percent Growth Inhibition (GI)
Protocol: as §5, §6

IGROV1 = test: NCI growth inhibition (SRB) assay; type: cell-based; details: Homo sapiens, IGROV-1, IGROV1, Ovarian Cancer, single dose 10 µM, 48 h, read-out: Percent Growth Inhibition (GI)
Protocol: as §5, §6

T-47D = test: NCI growth inhibition (SRB) assay; type: cell-based; details: Homo sapiens, T47D, Breast Cancer, single dose 10 µM, 48 h, read-out: Percent Growth Inhibition (GI)
Protocol: as §5, §6

ACHN = test: NCI growth inhibition (SRB) assay; type: cell-based; details: Homo sapiens, Renal Cancer, single dose 10 µM, 48 h, read-out: Percent Growth Inhibition (GI)
Protocol: as §5, §6

HL-60(TB) = test: NCI growth inhibition (SRB) assay; type: cell-based; details: Homo sapiens, Leukemia, single dose 10 µM, 48 h, read-out: Percent Growth Inhibition (GI)
Protocol: as §5, §6

HS 578T = test: NCI growth inhibition (SRB) assay; type: cell-based; details: Homo sapiens, Breast Cancer, single dose 10 µM, 48 h, read-out: Percent Growth Inhibition (GI)
Protocol: as §5, §6

786-0 = test: NCI growth inhibition (SRB) assay; type: cell-based; details: Homo sapiens, 786-0, Renal Cancer, single dose 10 µM, 48 h, read-out: Percent Growth Inhibition (GI)
Protocol: as §5, §6

BRAF = target: T2, BRAF (Homo sapiens, UniProt P15056); test: In vitro kinase inhibition assay (HotSpot, Reaction Biology); type: biochemical; details: single dose of 10 µM; 10 µM ATP as printed; read-out: Percent Inhibition, BRAF
T2 construct: purchased Reaction Biology Corp
T2 sequence (P15056 whole entry): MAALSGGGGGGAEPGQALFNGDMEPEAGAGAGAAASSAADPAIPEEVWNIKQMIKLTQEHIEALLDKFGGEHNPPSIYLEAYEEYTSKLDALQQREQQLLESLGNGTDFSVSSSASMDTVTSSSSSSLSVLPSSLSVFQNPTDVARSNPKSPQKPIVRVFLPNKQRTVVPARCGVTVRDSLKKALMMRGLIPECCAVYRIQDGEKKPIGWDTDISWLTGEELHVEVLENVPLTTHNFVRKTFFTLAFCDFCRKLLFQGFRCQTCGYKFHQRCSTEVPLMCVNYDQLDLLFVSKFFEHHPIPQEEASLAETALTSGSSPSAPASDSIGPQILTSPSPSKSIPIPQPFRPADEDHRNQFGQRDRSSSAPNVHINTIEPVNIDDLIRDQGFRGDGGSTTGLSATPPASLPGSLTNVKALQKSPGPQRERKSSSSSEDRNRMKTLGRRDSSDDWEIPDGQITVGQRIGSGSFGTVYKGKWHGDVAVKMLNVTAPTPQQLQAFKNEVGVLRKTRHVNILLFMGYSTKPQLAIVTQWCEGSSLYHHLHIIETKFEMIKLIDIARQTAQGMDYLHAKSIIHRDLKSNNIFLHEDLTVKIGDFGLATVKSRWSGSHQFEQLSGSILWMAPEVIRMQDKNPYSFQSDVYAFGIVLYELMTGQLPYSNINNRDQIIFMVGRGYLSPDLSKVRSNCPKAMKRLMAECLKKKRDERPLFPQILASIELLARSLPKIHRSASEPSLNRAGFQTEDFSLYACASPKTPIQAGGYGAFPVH
Protocol: as §1, §2, §3, §4
(§7) 6. Biology raw data for IC50 determination
(§8) Paper ID Cpd ID NSC Number

c-MER = target: T3, c-MER (Homo sapiens, UniProt Q12866); test: as above; type: biochemical; details: single dose of 10 µM; 10 µM ATP as printed; read-out: Percent Inhibition, c-MER
T3 construct: purchased Reaction Biology Corp
T3 sequence (Q12866 21-999): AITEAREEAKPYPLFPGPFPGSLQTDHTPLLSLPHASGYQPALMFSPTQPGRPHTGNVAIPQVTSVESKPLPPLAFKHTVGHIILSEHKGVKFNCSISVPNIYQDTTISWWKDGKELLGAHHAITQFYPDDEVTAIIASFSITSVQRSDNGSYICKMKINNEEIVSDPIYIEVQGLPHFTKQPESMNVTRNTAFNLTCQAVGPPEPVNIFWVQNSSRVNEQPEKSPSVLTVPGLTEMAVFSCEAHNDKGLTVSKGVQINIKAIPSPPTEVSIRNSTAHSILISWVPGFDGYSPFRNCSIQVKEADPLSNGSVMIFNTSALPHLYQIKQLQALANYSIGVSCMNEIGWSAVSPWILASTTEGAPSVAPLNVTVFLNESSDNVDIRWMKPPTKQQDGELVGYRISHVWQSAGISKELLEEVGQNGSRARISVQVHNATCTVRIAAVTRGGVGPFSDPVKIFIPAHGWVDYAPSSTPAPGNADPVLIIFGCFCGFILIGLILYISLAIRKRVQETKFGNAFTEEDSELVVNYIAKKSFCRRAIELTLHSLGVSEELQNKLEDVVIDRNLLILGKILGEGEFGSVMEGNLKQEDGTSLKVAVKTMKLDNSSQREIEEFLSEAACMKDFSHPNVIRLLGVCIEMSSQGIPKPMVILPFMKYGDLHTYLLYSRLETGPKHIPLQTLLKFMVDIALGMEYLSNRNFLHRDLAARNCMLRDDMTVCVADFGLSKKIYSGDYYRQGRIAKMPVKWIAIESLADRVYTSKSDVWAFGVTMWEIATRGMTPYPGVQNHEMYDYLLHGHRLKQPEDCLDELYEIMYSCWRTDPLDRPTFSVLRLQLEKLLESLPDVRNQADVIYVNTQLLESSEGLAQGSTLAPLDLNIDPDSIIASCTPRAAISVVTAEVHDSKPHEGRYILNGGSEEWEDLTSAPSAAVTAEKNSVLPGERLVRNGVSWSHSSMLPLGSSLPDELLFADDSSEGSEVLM
Protocol: as §1, §2, §3, §4, §7, §8

CDK2/cyclin A = target: T4, CDK2/cyclin A (Homo sapiens, UniProt P24941); test: as above; type: biochemical; details: single dose of 10 µM; 10 µM ATP as printed; read-out: Percent Inhibition, CDK2/cyclin A
T4 construct: purchased Reaction Biology Corp
Protocol: as §1, §2, §3, §4, §7, §8

EGFR = target: T5, EGFR (Homo sapiens, UniProt P00533); test: as above; type: biochemical; details: single dose of 10 µM; 10 µM ATP as printed; read-out: Percent Inhibition, EGFR
T5 construct: purchased Reaction Biology Corp
T5 sequence (P00533 25-1210): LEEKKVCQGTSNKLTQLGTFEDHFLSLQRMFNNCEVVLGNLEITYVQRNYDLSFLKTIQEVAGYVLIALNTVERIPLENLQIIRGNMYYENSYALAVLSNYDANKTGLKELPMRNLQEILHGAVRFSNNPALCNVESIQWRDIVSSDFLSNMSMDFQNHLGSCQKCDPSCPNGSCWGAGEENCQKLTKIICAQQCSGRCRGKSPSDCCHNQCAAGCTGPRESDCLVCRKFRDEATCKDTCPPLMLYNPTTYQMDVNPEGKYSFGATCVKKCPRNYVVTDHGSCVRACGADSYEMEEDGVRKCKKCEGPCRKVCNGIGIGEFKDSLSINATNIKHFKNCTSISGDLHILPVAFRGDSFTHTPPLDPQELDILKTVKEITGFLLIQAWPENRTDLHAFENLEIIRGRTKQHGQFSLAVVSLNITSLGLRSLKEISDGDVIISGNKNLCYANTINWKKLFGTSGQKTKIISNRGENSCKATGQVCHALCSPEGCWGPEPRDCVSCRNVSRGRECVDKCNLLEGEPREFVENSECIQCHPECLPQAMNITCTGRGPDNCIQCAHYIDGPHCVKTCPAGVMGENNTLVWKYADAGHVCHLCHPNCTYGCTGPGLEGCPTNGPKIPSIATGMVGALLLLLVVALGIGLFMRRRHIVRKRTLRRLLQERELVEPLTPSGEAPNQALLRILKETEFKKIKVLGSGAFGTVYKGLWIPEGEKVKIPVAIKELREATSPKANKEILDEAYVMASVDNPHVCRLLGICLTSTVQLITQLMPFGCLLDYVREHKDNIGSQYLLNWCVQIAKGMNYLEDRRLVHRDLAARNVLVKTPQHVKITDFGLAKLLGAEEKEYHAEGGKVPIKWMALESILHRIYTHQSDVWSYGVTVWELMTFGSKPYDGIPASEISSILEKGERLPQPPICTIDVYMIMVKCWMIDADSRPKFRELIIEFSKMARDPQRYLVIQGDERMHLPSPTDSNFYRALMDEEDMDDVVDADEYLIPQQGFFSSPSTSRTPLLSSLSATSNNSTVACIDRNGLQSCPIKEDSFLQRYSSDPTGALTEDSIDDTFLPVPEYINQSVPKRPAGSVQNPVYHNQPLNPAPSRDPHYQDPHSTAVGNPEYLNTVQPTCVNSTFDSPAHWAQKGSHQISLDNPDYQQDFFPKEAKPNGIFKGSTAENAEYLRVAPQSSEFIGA
Protocol: as §1, §2, §3, §4, §7, §8

PDGFRα = target: T6, PDGFRα (Homo sapiens, UniProt P16234); test: as above; type: biochemical; details: single dose of 10 µM; 10 µM ATP as printed; read-out: Percent Inhibition, PDGFRα
T6 construct: purchased Reaction Biology Corp
T6 sequence (P16234 24-1089): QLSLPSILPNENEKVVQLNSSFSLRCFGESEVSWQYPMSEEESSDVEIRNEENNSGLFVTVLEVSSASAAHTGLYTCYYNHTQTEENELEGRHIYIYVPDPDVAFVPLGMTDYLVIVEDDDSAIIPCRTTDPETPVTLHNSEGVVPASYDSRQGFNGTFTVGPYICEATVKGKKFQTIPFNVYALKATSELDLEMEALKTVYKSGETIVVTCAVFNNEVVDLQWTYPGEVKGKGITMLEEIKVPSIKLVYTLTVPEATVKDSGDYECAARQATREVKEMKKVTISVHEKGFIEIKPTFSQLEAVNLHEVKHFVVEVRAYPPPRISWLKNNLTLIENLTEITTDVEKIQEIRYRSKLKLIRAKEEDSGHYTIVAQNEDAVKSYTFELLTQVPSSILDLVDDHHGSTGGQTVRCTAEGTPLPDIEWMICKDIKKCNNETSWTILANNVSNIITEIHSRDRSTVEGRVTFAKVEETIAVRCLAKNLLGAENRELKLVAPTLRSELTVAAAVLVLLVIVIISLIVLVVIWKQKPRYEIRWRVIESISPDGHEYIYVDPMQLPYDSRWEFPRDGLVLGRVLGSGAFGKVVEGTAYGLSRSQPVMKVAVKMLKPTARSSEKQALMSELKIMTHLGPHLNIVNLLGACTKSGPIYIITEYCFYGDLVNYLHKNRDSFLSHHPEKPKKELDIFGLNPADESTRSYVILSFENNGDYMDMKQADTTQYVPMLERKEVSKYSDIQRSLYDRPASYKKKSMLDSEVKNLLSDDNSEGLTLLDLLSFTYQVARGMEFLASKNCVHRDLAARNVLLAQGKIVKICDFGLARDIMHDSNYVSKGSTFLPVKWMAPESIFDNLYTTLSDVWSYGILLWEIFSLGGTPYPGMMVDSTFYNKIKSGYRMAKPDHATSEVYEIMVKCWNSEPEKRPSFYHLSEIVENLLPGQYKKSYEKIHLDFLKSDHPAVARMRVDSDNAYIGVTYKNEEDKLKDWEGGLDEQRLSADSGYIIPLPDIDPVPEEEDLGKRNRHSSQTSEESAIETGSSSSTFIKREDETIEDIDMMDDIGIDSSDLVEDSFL
Protocol: as §1, §2, §3, §4, §7, §8

KDR/VEGFR2 = target: T7, KDR/VEGFR2 (Homo sapiens, UniProt P35968); test: as above; type: biochemical; details: single dose of 10 µM; 10 µM ATP as printed; read-out: Percent Inhibition, KDR/VEGFR2
T7 construct: purchased Reaction Biology Corp
Protocol: as §1, §2, §3, §4, §7, §8

[1] = system: panel of 60 different tumor cell lines; test: NCI antitumor assay, panel of 60 tumor cell lines; type: cell-based; details: single dose 10 µM, result in words
Protocol: as §5, §6

[2] = single dose of 10 µM, 10 µM ATP as printed
[3] = Homo sapiens, Leukemia, single dose 10 µM, 48 h, read-out: Percent Growth Inhibition (GI)

SMILES | inhibition at 10 µM (FMS; [2]) | inhibition at 10 µM (K-562) | inhibition at 10 µM (HCT-116) | inhibition at 10 µM (MOLT-4) | inhibition at 10 µM (SR; [3]) | inhibition at 10 µM (KM12) | inhibition at 10 µM (IGROV1) | inhibition at 10 µM (T-47D) | inhibition at 10 µM (ACHN) | inhibition at 10 µM (HL-60(TB)) | inhibition at 10 µM (HS 578T) | inhibition at 10 µM (786-0) | melting point | inhibitory effects on the different cancer cell lines [1] | further results
COc1ccc(Oc2nc(Nc3ccc(N4CCOCC4)cc3)ncc2NC(=O)c2ccc3c(c2)OCO3)cc1 [5a, N-(4-(4-Methoxyphenoxy)-2-((4-morpholinophenyl)amino)pyrimidin-5-yl)benzo[d][1,3]dioxole-5-carboxamide] | 82.5 ± 0.6% | 23.4% | 14.6% | 31.1% | 37.1% | 12.7% | 5.92% | 6.78% | 8.91% | 16.2% | 6.26% | 25.3% | 205.9 to 206.9 °C | – | inhibition at 10 µM (BRAF): 4.1 ± 10.5%; inhibition at 10 µM (c-MER): 4.4 ± 0.1%; inhibition at 10 µM (CDK2/cyclin A): 20.1 ± 0.1%; inhibition at 10 µM (EGFR): 27 ± 0.9%; inhibition at 10 µM (PDGFRα): 24 ± 0.4%; inhibition at 10 µM (KDR/VEGFR2): 7.9 ± 1.4%
COc1ccc(Oc2nc(Nc3ccc(N4CCOCC4)cc3)ncc2NC(=O)c2ccc(OC)c(OC)c2)cc1 [5b, 3,4-Dimethoxy-N-(4-(4-methoxyphenoxy)-2-((4-morpholinophenyl)amino)pyrimidin-5-yl)benzamide] | 44.1 ± 0.2% | 8.76% | 6.01% | 19.9% | 18.8% | -4.34% | 3.6% | 2.41% | -7.28% | 16.4% | 5.09% | 17.6% | 119.1 to 120.1 °C | moderate to poor | –
COc1ccc(Oc2nc(Nc3ccc(N4CCOCC4)cc3)ncc2NC(=O)c2cc(OC)c(OC)c(OC)c2)cc1 [5c, 3,4,5-Trimethoxy-N-(4-(4-methoxyphenoxy)-2-((4-morpholinophenyl)amino)pyrimidin-5-yl)benzamide] | 69.9 ± 0.4% | 20.4% | 23.9% | 31.6% | 64.4% | 3.99% | 11.9% | 0.52% | 4.83% | 31% | 3.23% | 44.2% | 179.5 to 180.5 °C | – | –
CCOc1cc(OCC)cc(C(=O)Nc2cnc(Nc3ccc(N4CCOCC4)cc3)nc2Oc2ccc(OC)cc2)c1 [5d, 3,5-Diethoxy-N-(4-(4-methoxyphenoxy)-2-((4-morpholinophenyl)amino)pyrimidin-5-yl)benzamide] | 95.1 ± 0.3% | 30.7% | 6.73% | 38.2% | 33.2% | 14% | 0.72% | 18.4% | 20.4% | 22.8% | 7.96% | 7.41% | – | moderate to poor | IC50 (FMS): 213 ± 1 nM; fold more potent than imatinib over FMS (FMS): ~5 fold
COc1ccc(Oc2nc(Nc3ccc(N4CCOCC4)cc3)ncc2NC(=O)Cc2cc(OC)cc(OC)c2)cc1 [5e, 2-(3,5-Dimethoxyphenyl)-N-(4-(4-methoxyphenoxy)-2-((4-morpholinophenyl)amino)pyrimidin-5-yl)acetamide] | 75.5 ± 0.8% | 2.31% | 0.34% | -0.81% | 13.2% | 1.32% | -9.02% | 10.2% | -0.26% | -6.34% | 1.64% | 0.75% | 152.7 to 153.7 °C | moderate to poor | –
COc1ccc(Oc2nc(Nc3ccc(N4CCOCC4)cc3)ncc2NC(=O)c2ccnc([N+](=O)[O-])c2)cc1 [5f, N-(4-(4-Methoxyphenoxy)-2-((4-morpholinophenyl)amino)pyrimidin-5-yl)-2-nitroisonicotinamide] | 65.4 ± 0.1% | 10.9% | -0.19% | -5.98% | 27.4% | -1.85% | 1.91% | 5.93% | 1.61% | -3.19% | 6.7% | 5.78% | 170 to 171 °C | moderate to poor | –
COc1ccc(Oc2nc(Nc3ccc(N4CCOCC4)cc3)ncc2NC(=O)c2cccc(SC)c2)cc1 [5g, N-(4-(4-Methoxyphenoxy)-2-((4-morpholinophenyl)amino)pyrimidin-5-yl)-3-(methylthio)benzamide] | – | 29.1% | 23.7% | 43.1% | – | 20.2% | 33.9% | 28.2% | 21.4% | 13.9% | 22.7% | 25% | – | – | IC50 (FMS): 110 ± 8 nM; fold more potent than imatinib over FMS (FMS): ~ 9 fold and 9 fold; inhibition at 10 µM (FMS): 90.6 ± 0.8%; inhibition at 10 µM (SR; Homo sapiens, 48 h, Leukemia, single dose 10 µM, read-out: Percent Growth Inhibition (GI)): 60%; Percent Growth Inhibition (GI) (SR; Leukemia, single dose 10 µM, 48 h): 60.5%
